The values that follow come from PMC9841531, “Indole Derivatives as New Structural Class of Potent and Antiproliferative Inhibitors of Monocarboxylate Transporter 1 (MCT1; SLC16A1)” (Journal of Medicinal Chemistry, 2022).

What is called IC50 is the concentration needed to halve the response being measured. One may read the GI50 as the concentration at which growth is held to half of that of the control.

Data set [1] has as its target T1, ABCB1 (Homo sapiens, UniProt P08183). In words: calcein AM assay, ABCB1-expressing A2780/ADR cells. The following applies: for IC50: read-out: ABCB1 calcein AM IC50 ± SEM, A2780/ADR cells, 22, 23 constrained to reference inhibitor 34; for ABCB1 inhibition: screening at 10 μM, inhibitor if 20% (+SEM) reached.
Excerpt: To provide a detailed picture of the pharmacological profile of the indole derivatives, we investigated their modulatory nature on the most prominent ABC transporters ABCB1 (P-glycoprotein, P-gp), ABCC1, (multidrug resistance-associated protein 1, MRP1), and ABCG2 (breast cancer resistance protein, BCRP). Here, we conducted calcein AM (ABCB1),[2],[52]−[59] daunorubicin (ABCC1),[52],[58]−[60] and pheophorbide A (ABCG2)[2],[52]−[60] assays using ABCB1-expressing A2780/ADR, ABCC1-expressing H69AR, and ABCG2-expressing MDCK II BCRP cells, respectively.
The calcein AM (ABCB1),[2],[52]−[59] daunorubicin (ABCB1[52],[60] and ABCC1[52],[58]−[60]), and pheophorbide A (ABCG2)[2],[52]−[60] assays were conducted as reported earlier. […] The data was processed using GraphPad Prism version 8.4.0, and IC50 values were determined, applying three- or four-parameter logistic equations, whatever was statistically preferred.
The target in a further data set is T2, MCT1 (Homo sapiens, UniProt P53985).
T2 construct: MCT1-expressing A-549 cells[14],[15] were exposed to the MCT1 substrate 3-BP, which becomes influxed by MCT1; endogenous in cells; host or cells: A-549 lung cancer cells (from NCCS, Pune)
T2 sequence (P53985 1-500): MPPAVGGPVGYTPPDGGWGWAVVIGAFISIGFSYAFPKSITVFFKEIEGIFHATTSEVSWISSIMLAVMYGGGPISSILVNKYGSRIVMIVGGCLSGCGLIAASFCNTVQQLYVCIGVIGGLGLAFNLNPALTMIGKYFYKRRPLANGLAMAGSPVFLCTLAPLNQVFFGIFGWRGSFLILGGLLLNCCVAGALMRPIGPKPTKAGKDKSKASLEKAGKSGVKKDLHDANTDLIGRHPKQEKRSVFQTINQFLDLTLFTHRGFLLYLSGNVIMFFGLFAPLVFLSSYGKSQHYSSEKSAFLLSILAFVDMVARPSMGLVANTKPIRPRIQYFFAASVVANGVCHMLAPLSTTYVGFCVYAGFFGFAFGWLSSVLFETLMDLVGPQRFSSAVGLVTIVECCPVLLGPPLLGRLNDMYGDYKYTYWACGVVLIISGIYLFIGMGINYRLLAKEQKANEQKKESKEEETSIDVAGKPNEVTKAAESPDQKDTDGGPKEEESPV
T2 sequence (P35613 140-385 partner limits assumed): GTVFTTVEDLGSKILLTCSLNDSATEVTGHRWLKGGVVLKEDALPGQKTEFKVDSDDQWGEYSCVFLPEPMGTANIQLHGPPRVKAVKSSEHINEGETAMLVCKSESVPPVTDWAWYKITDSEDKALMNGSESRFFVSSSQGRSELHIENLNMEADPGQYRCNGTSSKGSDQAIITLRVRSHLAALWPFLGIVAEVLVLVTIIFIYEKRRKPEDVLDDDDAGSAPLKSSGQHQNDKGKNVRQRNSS
In words: functional 3-BP cell viability assay (MCT1 transport inhibition). The following applies: MCT1-expressing A-549 cells, 50 μM 3-BP, 72 h; read-out: MCT1 transport inhibition IC50 ± SEM. Format: cell-based. On the procedure:
The inhibitory activity of indole derivatives against MCT1 was determined by applying a functional 3-bromopyruvate (3-BP) cell viability assay, as described in the literature[20],[39] with minor modifications. In short, MCT1-expressing A-549 cells[14],[15] were exposed to the MCT1 substrate 3-BP, which becomes influxed by MCT1. 3-BP is toxic, leading to decreased cell viability. Functional inhibition of MCT1 results in reduced intracellular 3-BP levels and, thus, enhanced cell viability compared to no inhibition. […] Table 1 provides the half-maximal inhibition concentration (IC50) values of compounds 17–32.
A functional 3-BP cytotoxicity assay was conducted as described in the literature[20],[39] with minor modifications. Dilution series of compounds 17–32 between 1 nM and 1 μM were prepared in DPBS (Cell Clone, Genetix Biotech Asia, New Delhi India), and 10 μL of each concentration was pipetted into a colorless flat-bottom 96-well microplate (SPL Life Sciences, Gyeonggi-do, Republic of Korea). One hundred and eighty microliters of a cell suspension (5000 cells/well) of A-549 cells was added, and subsequently, 10 μL of 3-BP was added at a concentration of 1 mM (final concentration per well: 50 μM). The plate was kept for 72 h at 37 °C under a 5% CO2-humidified atmosphere. Cell viability was determined as described before[43] by adding 20 μL of a 5 mg/mL solution of MTT to each well and further incubation for 1 h. Eventually, the supernatant was removed and 100 μL of DMSO was added to each well. The absorbance was spectrophotometrically determined at 570 nm using a SpectraMax iD3 multi-mode microplate reader (Molecular Devices, San Jose, CA) with a background correction (690 nm). The determined absorbance values were correlated to the logarithmic concentrations of compounds 17–32, and IC50 values were calculated applying nonlinear regression using GraphPad Prism (version 8.4.0., San Diego, CA).

For the next data set, the system named is MCF-7 cancer cells. Nature of the data set: MTT-based cell viability assay, MCF-7. The settings on record: Homo sapiens, MCF7, 72 h, read-out: MCF-7 cancer cell toxicity GI50 ± SEM. The text has this:
MCT1-expressing cells have an extraordinary energy demand and rely on pyruvate metabolism, through either lactate conversion or pyruvate consumption. Inhibition of MCT1 blocks lactate and pyruvate influx into cancer cells, which prevents their processing in the TCA cycle. Over time, the viability of cells exposed to an MCT1 inhibitor is impaired due to pyruvate deprivation, which is compensated by upregulating glucose metabolism—leading to an overconsumption of glucose. To confirm the antiproliferative nature of the indole derivatives, we investigated the compounds toward the MCT1-expressing cell lines A-549[14],[15] and MCF-7.[16] Cancer cell viability was assessed via a 3-(4,5-dimethylthiazol-2-yl)-2,5-diphenyltetrazolium bromide (MTT) assay, as reported earlier.[43]
To determine the growth inhibitory potential of compounds 17–32, […] of each compound either at concentrations between 1 and 100 μM (A-549 or MCF-7) or at 10 and 50 μM (NIH/3T3) was pipetted into colorless flat-bottom 96-well microplates. Thereafter, 180 μL of a cell suspension (5000 cells/well) of either A-549, MCF-7, or NIH/3T3 cells was added and subsequently kept for 72 h at 37 °C under a 5% CO2-humidified atmosphere. The cell viability as well as the GI50 values were determined as described above.[43]

Data set [2] has as its system MCT1-expressing A-549 cells. In words: MTT-based efficacy assay, 33 in combination with test compound, A-549. Format: cell-based. The settings on record: for factor of sensitization of A-549 cells against 33: shift of concentration-effect curve of 33; for Increase Susceptibility toward 33 (Factor): supplement csv. On the procedure:
MCT1 inhibition anticipates challenging cancer cell energy supply and, thus, increases the efficacy of anticancer agents.
For this purpose, 10 μL of compounds 24 or 30 (50 nM, 100 nM, or 500 nM) was transferred onto a colorless flat-bottom 96-well microplate and complemented with 180 μL of a cell suspension containing either approximately 5,000 A-549 cells. A dilution series of compound 33 at concentrations between 50 nM and 50 μM was generated, and 10 μL of each concentration was transferred onto the plate. The observed effects of compounds 24 and 30 were compared to the effect of compound 33 alone on A-549. The plates were incubated for 72 h at 37 °C and a 5% CO2-humidified atmosphere, before subsequent processing with the regular MTT assay as described above.[43]
(In general: Tetrazolium assays rely on reduction of a dye to a coloured formazan, in cell work by metabolically active cells.)

The target in data set [3] is T1, ABCB1. In words: daunorubicin assay, ABCB1-expressing A2780/ADR cells. It counts as cell-based. The following applies: A2780/ADR cells; read-out: ABCB1 daunorubicin IC50 ± SEM.

T1 sequence (P08183 whole entry): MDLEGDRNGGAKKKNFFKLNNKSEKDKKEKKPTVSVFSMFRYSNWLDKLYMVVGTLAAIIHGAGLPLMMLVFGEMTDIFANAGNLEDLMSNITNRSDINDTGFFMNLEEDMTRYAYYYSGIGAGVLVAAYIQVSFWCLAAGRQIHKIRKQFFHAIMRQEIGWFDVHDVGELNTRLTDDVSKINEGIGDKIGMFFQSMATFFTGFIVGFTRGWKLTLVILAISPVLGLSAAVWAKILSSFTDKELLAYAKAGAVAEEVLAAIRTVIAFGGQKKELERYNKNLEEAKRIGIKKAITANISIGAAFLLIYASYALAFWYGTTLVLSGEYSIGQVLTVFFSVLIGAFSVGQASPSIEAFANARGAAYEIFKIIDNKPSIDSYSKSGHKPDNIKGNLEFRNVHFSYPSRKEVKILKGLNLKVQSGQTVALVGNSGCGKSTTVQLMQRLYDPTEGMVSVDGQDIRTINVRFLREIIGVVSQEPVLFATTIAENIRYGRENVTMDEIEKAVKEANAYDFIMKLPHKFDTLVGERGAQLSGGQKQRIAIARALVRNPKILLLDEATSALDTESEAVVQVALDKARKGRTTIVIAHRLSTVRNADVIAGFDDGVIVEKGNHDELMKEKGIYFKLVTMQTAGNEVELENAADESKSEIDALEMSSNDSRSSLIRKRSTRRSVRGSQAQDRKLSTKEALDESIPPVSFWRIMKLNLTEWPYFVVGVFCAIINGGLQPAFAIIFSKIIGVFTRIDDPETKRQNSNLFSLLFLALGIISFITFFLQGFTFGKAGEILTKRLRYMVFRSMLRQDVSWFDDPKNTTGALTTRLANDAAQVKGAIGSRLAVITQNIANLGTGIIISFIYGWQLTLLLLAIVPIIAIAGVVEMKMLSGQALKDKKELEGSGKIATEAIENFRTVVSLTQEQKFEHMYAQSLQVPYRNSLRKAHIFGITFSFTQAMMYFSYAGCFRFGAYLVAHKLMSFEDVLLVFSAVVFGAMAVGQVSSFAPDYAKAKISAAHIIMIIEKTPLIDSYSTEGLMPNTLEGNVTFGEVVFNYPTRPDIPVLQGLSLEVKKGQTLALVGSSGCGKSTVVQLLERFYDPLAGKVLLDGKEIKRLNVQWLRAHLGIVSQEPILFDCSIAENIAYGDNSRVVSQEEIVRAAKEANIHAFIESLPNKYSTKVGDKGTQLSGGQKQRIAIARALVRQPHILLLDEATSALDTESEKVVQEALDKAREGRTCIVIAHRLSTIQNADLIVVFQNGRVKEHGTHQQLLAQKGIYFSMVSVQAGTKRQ

For the compound `COC(=O)/C(C#N)=C/c1cn(CC(=O)Nc2ccc(C)cn2)c2ccccc12` [Compound 30, Methyl-2-cyano-3-(1-(2-((5-methylpyridin-2-yl)amino)-2-oxoethyl)-1H-indol-3-yl) Acrylate], on ABCB1 [1], the half-inhibitory concentration (IC50) is 1.51 ± 0.08 µM and the ABCB1 inhibition result is on record as “X (Compounds were considered as inhibitors if they reached 20% (+SEM) inhibition compared to the reference inhibitors 33–35; X = fulfilled)”. The IC50 at MCT1 was 0.0823 ± 0.0044 µM. Also, the GI50 in the data set on MCF-7 cancer cells was determined as 9.12 ± 0.22 µM. In addition, in data set [2], the “factor of sensitization of A-549 cells against 33” value was 2.6 and the “Increase Susceptibility toward 33 (Factor)” value was 2.6. The IC50 on ABCB1 [3] is 2.77 ± 0.02 µM.
Regarding `COC(=O)/C(C#N)=C/c1cn(CC(=O)Nc2ccc(OC)cc2)c2ccccc12` [Compound 24, Methyl-2-cyano-3-(1-(2-((4-methoxyphenyl)amino)-2-oxoethyl)-1H-indol-3-yl) Acrylate], at ABCB1 [1], the concentration for half-maximal inhibition (IC50) was 0.983 ± 0.135 µM and the ABCB1 inhibition entry was “X (Compounds were considered as inhibitors if they reached 20% (+SEM) inhibition compared to the reference inhibitors 33–35; X = fulfilled)”. Besides, the IC50 at MCT1 was 0.081 ± 0.004 µM. Also, in the data set on MCF-7 cancer cells, the GI50 came out at 15.1 ± 0.4 µM. Further, in data set [2], the “factor of sensitization of A-549 cells against 33” value was determined as 2.5 and the “Increase Susceptibility toward 33 (Factor)” value was 2.5. The half-inhibitory concentration (IC50) at ABCB1 [3] is 1.49 ± 0.05 µM.
